Entries after “also recorded” stand apart in the source; their conditions may differ.
B1: DW216: monoclonal anti-human JAML antibody (IgG1,κ), non-blocking; VH SEQ ID NO:21, VL SEQ ID NO:24 (antibody, V domains shown)
VH: DVQLVESGPGLVKPSQSLSLTCTVTGYSITSDYAWNWIRQFPGNKLEWMGYISSSGNSNYNPSLKSRISITRDTSKNQFFLQLNSVTTEDTATYYCAGATGYSMDYWGQGTTLTVK
VL: VLTQSPAIMSASLGERVTMTCTASSSVSSSYLHWYQQKPGSSPKLWIYSTSNLASGVPARFSGSGSGTSYSLTISSMEAEDAATYYCHQYHRSPFTFGSGTKLELK

Key:
[1] = test system: JAML shedding from differentiated HL60; assay: JAML shedding with protease inhibitors, differentiated HL60; format: cell-based, human; settings: PMA 200 nM; cocktail 1:50, AEBSF 1 mM, PMSF 2 mM, Phenanthroline 5 mM, NEM 6 mM; sandwich ELISA; FIG. 6A
Protocol: JAML shedding from differentiated HL60 was assayed as described in the legend for FIG. 5. Protease inhibitors were added to cell suspensions during incubation in H^+ with or without PMA. Inhibitors used were Sigma inhibitor cocktail (Cat #P8340) used at 1:50 dilution, AEBSF 1 mM, PMSF 2 mM, Phenanthroline 5 mM and NEM 6 mM.
To explore the mechanisms for release of JAML from the surface of differentiated HL60 and PLB-985 cells during activation with PMA, PMA was added to cells in the presence or absence of a variety of protease inhibitors. The protease inhibitor cocktail from Sigma that targets serine proteases was used as well as cysteine proteases and several independent inhibitors. […] (Le Gall et al., 2003, JBC 278 No46 45255-45268).
Cells were suspended at 100×10^6 cells/ml in 50 ml centrifuge tubes. PMA was added at a final concentration of 200 nM and tubes incubated at 37° C. of 30 min. Supernatants were collected by centrifugation. To eliminate the presence of macroparticles in the supernatants, ultracentrifugation was performed in a table-top microcentrifuge (Beckman TL-100) at 100,000 g for 30 minutes. The “cleared” supernatants were assayed for the presence of soluble JAML.
Purified antibody DW100 (100 μl/well of 10 μg/ml dilution) was coated onto a high binding 96 well plate (Immulon II) overnight at 4° C. or 1½ hr at 37° C. After washing, 200 μl of 5% blocking solution (Roche) was added to each well for 1 hr at room temperature (RT). After washing, 100 μl supernatant samples in triplicates were added to the wells as well as serial dilutions of purified sJAML-His and incubated for 1 hr RT. After washing, 100 μl biotinylated DW216 antibodies was added at 10 μg/ml. This was followed after a wash by Streptavidin-HRP diluted at 1:4000. The wells were washed again and after addition of ABTS substrate, wells were analyzed using a microplate reader at 405 nm wavelength.

JAML binding with CAR = target: T1, JAML binding with CAR (Homo sapiens, UniProt Q86YT9); assay: CAR binding assay (ELISA, CAR-GST on immobilized sJAML-His); settings: CAR-GST 10 μg/ml on immobilized sJAML-His preincubated with antibody; FIG. 1C
T1 construct: soluble JAMLD1D2 was truncated and tagged after residue Leucine259; made in house; host or cells: HEK293T (sJAML-His)
T1 sequence (Q86YT9 20-259): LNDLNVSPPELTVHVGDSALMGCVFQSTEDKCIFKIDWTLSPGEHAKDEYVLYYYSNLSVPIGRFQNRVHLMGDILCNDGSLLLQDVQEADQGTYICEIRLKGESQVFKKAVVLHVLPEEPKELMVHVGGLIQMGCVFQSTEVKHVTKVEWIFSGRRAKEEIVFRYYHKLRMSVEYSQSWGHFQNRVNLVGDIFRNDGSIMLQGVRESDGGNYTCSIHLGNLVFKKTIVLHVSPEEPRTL
Protocol: FIG. 1C. CAR binding assay: sJAML-His was coated in Immulon II microtiter microtiter wells overnight, at 4° C. Microtiter wells were washed and blocked and 100 μl antibody solutions were added to wells for 1 hour RT. After washing, CAR-GST was added at 10 μg/ml for 1 hour RT, washed and the assay was developed with HRP conjugated goat anti GST followed by ABTS and OD measurement at 405 nm.
Because certain antibodies recognize the membrane distal domain of JAML, their ability to inhibit binding to CAR was tested. By ELISA, the levels of soluble CAR-GST bound to immobilized sJAML-His preincubated with anti JAML antibodies was measured. […] Thus, these antibodies recognize three different epitopes on JAML and that both DW100 and DW55 bind epitopes close to the JAML binding site. Using a cell aggregation assay, the possibility that DW100 could inhibit the binding of JAML to CAR expressed on the surface of cells was examined. […] This again confirms previously described JAML binding to CAR, as well as the specificity of DW100 (blocking) and DW216 (non-blocking) Abs to JAML.

[2] = target: T2, CHO-JAML-His and CHO JAML-6xMyc (Homo sapiens, UniProt Q86YT9); assay: FACS staining of stably transfected CHO-JAML cell lines; format: binding; settings: FIG. 1A
T2 construct: 6xMyc (cell line CHO JAML-6xMyc); expressed in transfected cells
T2 sequence (Q86YT9 20-394): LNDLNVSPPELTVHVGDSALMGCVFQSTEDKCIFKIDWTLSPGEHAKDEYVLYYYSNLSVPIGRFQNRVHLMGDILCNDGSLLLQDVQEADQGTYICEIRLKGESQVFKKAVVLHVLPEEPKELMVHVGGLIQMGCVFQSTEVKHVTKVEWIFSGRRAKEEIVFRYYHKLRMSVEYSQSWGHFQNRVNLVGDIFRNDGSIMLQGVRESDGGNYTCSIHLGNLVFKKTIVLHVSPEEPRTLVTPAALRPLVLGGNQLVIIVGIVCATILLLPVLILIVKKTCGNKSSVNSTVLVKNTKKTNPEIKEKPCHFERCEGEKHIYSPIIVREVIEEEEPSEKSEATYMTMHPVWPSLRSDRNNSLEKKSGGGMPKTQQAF
From the text: BALB/c mice were immunized with recombinant soluble fragment of JAML.D1D2 tagged with 10 His residues at the C-terminus (sJAML-His), generated in H293T cells and purified by Nickel chromatography. After the 4th boost, mice were given a final immunization and, 3 days later, spleen cells harvested and fused to the myeloma cell line P3U1. Hybridomas were selected in HAT medium and supernatants of clones were subjected to screening first to immobilized, soluble JAML and followed by staining of CHO-JAML stable transfectants. Three hybridomas were selected and antibodies were purified from ascites. FACS staining profiles of mAbs using two different, stably transfected CHO-JAML cell lines, CHO-JAML-His and CHO JAML-6xMyc, both membrane bound and tagged at the C-terminus with either 10-His or 6xMyc. Control antibody is 9E10 anti Myc.
These hybridomas were further tested for reactivity against tagged, full-length JAML expressed on the surface of cultured cells. CHO-JAML-6XMyc transfectants were aliquoted and pelleted into round bottom 96 well plates. 100 μl hybridoma supernatants were added for 1 hr at 4° C. Cells were washed and positive wells were identified by FACS analysis using Goat anti Mouse-AlexaFluor 488. Cells from positive wells were cloned by limiting dilution at one cell per well and expanded first in DMEM-10% FBS containing HAT then in medium containing HT (ATCC) and later DMEM, 10% FBS. The cloned cells of interest were sent to Harlan Laboratories (Indianapolis, Ind.) for production of ascites. Antibodies were purified from ascitic fluid using proteinA-Sepharose (GE Healthcare) followed by dialysis against PBS. Aliquots were frozen at −80° C. Ig subclass of each antibody was determined by using the IsoStrip Mouse Monoclonal Antibody Isotyping Kit (Roche Applied Science). […]
Cells suspensions of adherent cells were prepared by trypsinization with Trypsin-EDTA (Sigma). […] After final washes, cells were analyzed using FACS Calibur. […] All samples were stained for JAML (DW100 mAb) and CD11b/CD18 (CBRM 1/29), and only CD11b/CD18 positive cells (PMNs) were analyzed for JAML expression.

[3] = test system: T84 epithelial monolayers; assay: Scratch wound closure of epithelial monolayers; format: cell-based, human; settings: T84; mAb 30 μg/ml; FIG. 10A,B
Protocol: T84 epithelial monolayers grown to confluence were wounded by introduction of a single linear scratch wound using a 20-μl plastic pipette tip. Wound closure was monitored over 72 h in the absence or presence of PMN or sJAML. The scale bar is 10 μm.
Whether JAML binding to CAR would affect epithelial wound restitution was investigated. […] If soluble JAML interactions with CAR play a role, the effect could be reversed with the addition of blocking DW100 mAb.
Cell grown in 24-well tissue culture plates received one linear wound using a 20-μl plastic pipette tip attached to low suction. Wounded monolayers were washed once with PBS to remove detached cells and debris, and incubated with the appropriate stimulus added to the medium. The rate of migration was measured by determining the wound area immediately after wounding (t=0) and at the indicated time points. The data are presented as the area of the wound at each time point normalized to t=0. The experiments were carried out in triplicates per condition, and the data shown are representative of 4 independent experiments.

| Molecule | inhibition of PMA-induced JAML shedding, differentiated HL60 [1] | inhibition of CAR binding to JAML (JAML binding with CAR) | FACS staining of CHO-JAML transfectant lines [2] | reversal of PMN or sJAML inhibition of wound closure [3] |
| --- | --- | --- | --- | --- |
| NCCc1ccc(S(=O)(=O)F)cc1 [AEBSF] | No decrease in JAML shedding | – | – | – |
| CCN1C(=O)C=CC1=O [N-Ethyl maleimide, N-Ethylmaleimide] | No decrease in JAML shedding | – | – | – |
| O=S(=O)(F)Cc1ccccc1 [PMSF, Phenylmethylsulfonyl fluoride] | showed some inhibition | – | – | – |
| B1 | – | did not inhibit at all; also recorded: whereas DW216 did not | stained both transfectant lines equally well | but not DW216 mAb (30 μg/ml) significantly improved wound restitution |

Reference: patent publication US10465005B2, “JAML specific binding agents, antibodies, and uses related thereto” (Emory University, priority 2011, dated 2019)
